Test results: publication PMC6499206, “Quantification of Volatile Metabolites Derived From Garlic (Allium sativum) in Human Urine” (Frontiers in Nutrition, 2019)

Test: Quantification of garlic-derived metabolites in human urine after ingestion of 3 g raw garlic (SIDA, SAFE, HRGC-MS / HRGC-GC-MS)
Assay type: in vivo
Settings: 3 g raw garlic
Excerpt: Human urine samples were obtained from 18 volunteers (age 22–38 years, mean 27 years; 11 females, 7 males); thereby, one volunteer conducted the whole experimental series twice. At the time of examination, volunteers reported no known illness that might have potentially influenced the metabolism or the excretion of urine. The test persons were instructed to avoid foods that were rich in sulfur-containing substances at the testing day as well as 2 days preceding the testing day, namely garlic, onion, wild garlic, chives, cabbage, and leek, and were only allowed to consume the garlic sample provided in the course of the experiments. Additionally, subjects were asked to keep records of the food (including food supplements) and beverages they consumed during these 3 testing days. Generally, the overall panelists' requirements were in accordance with our previous studies ([5], [16]).
On the sampling day, the outer garlic cloves of a whole garlic bulb were peeled and cut into ~3 mm cubes by using a garlic cutter (Genius GmbH, Limburg/Lahn, Germany). Subsequently these cubes were thoroughly mixed and aliquoted into 3 g portions. Three to four test persons conducted the experiment at the same day. Each test person was asked to ingest a garlic portion of 3 g. In total, eight consecutive urine samples were provided by each test person, comprising one whole urine set. The samples were collected in sterile brown glass bottles, with sampling times as follows: one sample was provided directly prior to garlic consumption. The series of the second to eighth sample was then obtained at about 0.5, 1, 2, 4, 6, 8, and 24 h after garlic consumption, respectively. Between the first urine sample (prior to garlic consumption) and the seventh urine sample (8 h after garlic consumption) test persons only spent urine at the specific time points mentioned before. Another sample was provided at the next morning (24 h after garlic consumption). Between the samples provided 8 and 24 h after garlic consumption no urine was collected. All samples were immediately placed into a −80°C freezer and were kept frozen until further analysis.
The samples of each set were termed according to their sampling time. The following list provides the time intervals that are related to the respective sample name: • - pre: before garlic consumption • - 0.5 h post: 0.4–0.8 h after garlic consumption • - 1 h post: 0.9–1.3 h after garlic consumption • - 2 h post: 1.8 h−2.2 h after garlic consumption • - 4 h post: 3.8–4.4 h after garlic consumption • - 6 h post: 5.8–6.4 h after garlic consumption • - 8 h post: 7.8–8.4 h after garlic consumption • - 24 h post: 23.8–25.6 h after garlic consumption
A creatinine kit (Labor+Technik Eberhard Lehmann GmbH, Berlin, Germany) was used to determine the creatinine content in each urine sample. The determination principle of this kit is based on the reaction of creatinine with picric acid under basic conditions (Jaffé reaction). The formed complex was detected photometrically at a wavelength of 492 nm.
For quantification purposes, the deuterated standards ^2H3-AMS, ^2H3-AMSO, and ^2H3-AMSO2 were added to the sample and stirred for 10 min. Subsequently, DCM was added in a ratio of 1:2 (DCM/human urine; v/v) and this solution was stirred for further 30 min at room temperature. To isolate the volatile fraction from the urine samples we then applied SAFE-distillation ([17]), thereby distilling the respective samples at 50°C. After completion of the distillation process, 10 mL of DCM were applied in each case to rinse the SAFE apparatus and to ensure complete transition of the volatile compounds. This process was repeated with another 10 mL of DCM. After thawing, the obtained aqueous distillate phase was extracted three times with 25 mL DCM. The organic phases were combined, dried over anhydrous Na2SO4 and concentrated to a total volume of 100 μL by means of Vigreux distillation and subsequent micro-distillation at 50°C. […]

Question: For `C=CCS(C)(=O)=O` [AMSO2, allyl methyl sulfone], which “metabolite concentration in urine” value (U VII, 1 h post (1.08 h)) is on record?
Answer: 125.9 µg/kg

Question: And the “metabolite concentration in urine, creatinine-normalized” value (U VII, 1 h post (1.08 h))?
Answer: 78.0 µg/mmol creatinine

Question: And the “metabolite concentration in urine” value (U VII, 2 h post (2.00 h))?
Answer: 139.9 µg/kg

Question: And the “metabolite concentration in urine, creatinine-normalized” value (U VII, 2 h post (2.00 h))?
Answer: 143.4 µg/mmol creatinine

Question: And the “metabolite concentration in urine” value (U VII, 4 h post (4.00 h))?
Answer: 170.5 µg/kg

Question: And the “metabolite concentration in urine, creatinine-normalized” value (U VII, 4 h post (4.00 h))?
Answer: 105.6 µg/mmol creatinine

Question: And the “metabolite concentration in urine” value (U VII, 6 h post (6.00 h))?
Answer: 203.6 µg/kg

Question: What about the “metabolite concentration in urine, creatinine-normalized” value (U VII, 6 h post (6.00 h)) of the same compound?
Answer: 65.5 µg/mmol creatinine

Question: And the “metabolite concentration in urine” value (U VII, 8 h post (8.00 h))?
Answer: 147.2 µg/kg

Question: What about the “metabolite concentration in urine, creatinine-normalized” value (U VII, 8 h post (8.00 h)) of the same compound?
Answer: 75.5 µg/mmol creatinine

Question: And the “metabolite concentration in urine” value (U VII, 24 h post (24.00 h))?
Answer: 15.7 µg/kg

Question: What about the “metabolite concentration in urine, creatinine-normalized” value (U VII, 24 h post (24.00 h)) of the same compound?
Answer: 4.2 µg/mmol creatinine

Question: And the “metabolite concentration in urine” value (U VII, pre (-0.25 h))?
Answer: 7.0 µg/kg

Question: And the “metabolite concentration in urine, creatinine-normalized” value (U VII, pre (-0.25 h))?
Answer: 2.0 µg/mmol creatinine

Question: What about the “metabolite concentration in urine” value (U VIII, 0.5 h post (0.52 h)) of the same compound?
Answer: 112.9 µg/kg

Question: What about the “metabolite concentration in urine, creatinine-normalized” value (U VIII, 0.5 h post (0.52 h)) of the same compound?
Answer: 143.6 µg/mmol creatinine

Question: And the “metabolite concentration in urine” value (U VIII, 1 h post (1.08 h))?
Answer: 256.0 µg/kg

Question: What about the “metabolite concentration in urine, creatinine-normalized” value (U VIII, 1 h post (1.08 h)) of the same compound?
Answer: 154.0 µg/mmol creatinine

Question: And the “metabolite concentration in urine” value (U VIII, 2 h post (2.08 h))?
Answer: 301.1 µg/kg

Question: And the “metabolite concentration in urine, creatinine-normalized” value (U VIII, 2 h post (2.08 h))?
Answer: 284.7 µg/mmol creatinine

Question: And the “metabolite concentration in urine” value (U VIII, 4 h post (4.07 h))?
Answer: 322.0 µg/kg

Question: And the “metabolite concentration in urine, creatinine-normalized” value (U VIII, 4 h post (4.07 h))?
Answer: 152.2 µg/mmol creatinine

Question: What about the “metabolite concentration in urine” value (U VIII, 6 h post (6.08 h)) of the same compound?
Answer: 348.3 µg/kg

Question: What about the “metabolite concentration in urine, creatinine-normalized” value (U VIII, 6 h post (6.08 h)) of the same compound?
Answer: 92.2 µg/mmol creatinine

Question: What about the “metabolite concentration in urine” value (U VIII, 8 h post (7.90 h)) of the same compound?
Answer: 255.0 µg/kg

Question: And the “metabolite concentration in urine, creatinine-normalized” value (U VIII, 8 h post (7.90 h))?
Answer: 92.7 µg/mmol creatinine

Question: What about the “metabolite concentration in urine” value (U VIII, 24 h post (23.83 h)) of the same compound?
Answer: 48.3 µg/kg

Question: And the “metabolite concentration in urine, creatinine-normalized” value (U VIII, 24 h post (23.83 h))?
Answer: 18.1 µg/mmol creatinine

Question: And the “metabolite concentration in urine” value (U VIII, pre (-0.33 h))?
Answer: 97.6 µg/kg

Question: What about the “metabolite concentration in urine, creatinine-normalized” value (U VIII, pre (-0.33 h)) of the same compound?
Answer: 21.82 µg/mmol creatinine

Question: What about the “metabolite concentration in urine” value (U X, 0.5 h post (0.53 h)) of the same compound?
Answer: 15.5 µg/kg

Question: And the “metabolite concentration in urine, creatinine-normalized” value (U X, 0.5 h post (0.53 h))?
Answer: 8.0 µg/mmol creatinine

Question: What about the “metabolite concentration in urine” value (U X, 1 h post (1.03 h)) of the same compound?
Answer: 27.7 µg/kg

Question: What about the “metabolite concentration in urine, creatinine-normalized” value (U X, 1 h post (1.03 h)) of the same compound?
Answer: 35.2 µg/mmol creatinine

Question: What about the “metabolite concentration in urine” value (U X, 2 h post (2.03 h)) of the same compound?
Answer: 48.6 µg/kg

Question: And the “metabolite concentration in urine, creatinine-normalized” value (U X, 2 h post (2.03 h))?
Answer: 72.3 µg/mmol creatinine

Question: What about the “metabolite concentration in urine” value (U X, 4 h post (3.85 h)) of the same compound?
Answer: 79.1 µg/kg

Question: And the “metabolite concentration in urine, creatinine-normalized” value (U X, 4 h post (3.85 h))?
Answer: 60.1 µg/mmol creatinine

Question: What about the “metabolite concentration in urine” value (U X, 6 h post (5.80 h)) of the same compound?
Answer: 89.3 µg/kg

Question: And the “metabolite concentration in urine, creatinine-normalized” value (U X, 6 h post (5.80 h))?
Answer: 37.7 µg/mmol creatinine

Question: What about the “metabolite concentration in urine” value (U X, 8 h post (7.75 h)) of the same compound?
Answer: 85.2 µg/kg

Question: And the “metabolite concentration in urine, creatinine-normalized” value (U X, 8 h post (7.75 h))?
Answer: 36.5 µg/mmol creatinine

Question: And the “metabolite concentration in urine” value (U X, 24 h post (23.97 h))?
Answer: 53.0 µg/kg

Question: And the “metabolite concentration in urine, creatinine-normalized” value (U X, 24 h post (23.97 h))?
Answer: 4.9 µg/mmol creatinine

Question: What about the “metabolite concentration in urine” value (U X, pre (-0.07 h)) of the same compound?
Answer: < LOD^3

Question: And the “metabolite concentration in urine, creatinine-normalized” value (U X, pre (-0.07 h))?
Answer: < LOD^3

Question: What about the “metabolite concentration in urine” value (U XI, 0.5 h post (0.50 h)) of the same compound?
Answer: 27.5 µg/kg

Question: And the “metabolite concentration in urine, creatinine-normalized” value (U XI, 0.5 h post (0.50 h))?
Answer: 33.4 µg/mmol creatinine

Question: And the “metabolite concentration in urine” value (U XI, 1 h post (1.02 h))?
Answer: 65.7 µg/kg

Question: What about the “metabolite concentration in urine, creatinine-normalized” value (U XI, 1 h post (1.02 h)) of the same compound?
Answer: 82.6 µg/mmol creatinine

Question: And the “metabolite concentration in urine” value (U XI, 2 h post (2.00 h))?
Answer: 93.5 µg/kg

Question: And the “metabolite concentration in urine, creatinine-normalized” value (U XI, 2 h post (2.00 h))?
Answer: 122.1 µg/mmol creatinine

Question: What about the “metabolite concentration in urine” value (U XI, pre (-0.08 h)) of the same compound?
Answer: 9.0 µg/kg

Question: What about the “metabolite concentration in urine, creatinine-normalized” value (U XI, pre (-0.08 h)) of the same compound?
Answer: 2.6 µg/mmol creatinine

Question: What about the “metabolite concentration in urine” value (U XII, 0.5 h post (0.48 h)) of the same compound?
Answer: 17.3 µg/kg

Question: And the “metabolite concentration in urine, creatinine-normalized” value (U XII, 0.5 h post (0.48 h))?
Answer: 2.3 µg/mmol creatinine

Question: And the “metabolite concentration in urine” value (U XII, 1 h post (1.03 h))?
Answer: 33.1 µg/kg

Question: What about the “metabolite concentration in urine, creatinine-normalized” value (U XII, 1 h post (1.03 h)) of the same compound?
Answer: 33.6 µg/mmol creatinine
